# Laboratory results taken from patent US6475993B2 (Universite Laval, priority 1998, dated 2002).
# Assays:
# [1] = system: CFTR protein; conditions: gentamicin 200 mg/mL (so in the source), incubation 18 to 24 hours; Howard et al. 1996; cited from earlier work
# [2] = system: mdx mice; test: Toxicity signs in mdx mice treated with gentamicin; format: in vivo
# Description: Further, any mean by which gentamicin or gentamicin-like or derived molecules can be driven more directly to the site of action is within the scope of this invention.
# [3] = system: dystrophin; test: Dystrophin immunohistochemistry in skeletal muscle and heart of mdx mice treated with gentamicin; format: in vivo; conditions: for Dystrophin staining intensity: 7 days
# Method: All mice were then sacrificed, their skeletal muscle and their heart were frozen and cryostat sectioned. The presence of dystrophin in these sections was investigated by immunohistochemistry. […] In the untreated mdx muscles, dystrophin immunostaining was observed only in a few revertant fibers (Hoffman et al. 1990). […] The dystrophin staining was less intense in the muscles of mice treated with 1 mg/kg. […] The duration of treatment may vary.
substance,measurement,setting,value
gentamicin,Suppression of premature stop mutation in CFTR gene (full-length CFTR protein),[1],permitted to suppress the premature stop mutation
same,Toxicity signs,[2],No toxicity signs appeared
same,Success of daily treatments of other route or duration,[3]; Sub-cutaneous or intra-muscular daily treatments of 7 to 14 days or longer,equivalently successful
same,Dystrophin staining intensity,"[3]; mdx mice, I.M. 5 mg/day gentamicin, some muscles",as intense as that observed in the normal mouse muscles
same,Presence of dystrophin by immunohistochemistry,"[3]; mdx mice, I.M. gentamicin 1 mg/day or 5 mg/day during 7 days, skeletal muscle and heart cryostat sections",detected by immunohistochemistry on all muscle fibers and all heart muscle cells
same,Dystrophin staining intensity,"[3]; mdx mice, I.M. gentamicin, printed 1 mg/kg",less intense
same,Suppression of premature stop codon in vivo,"[3]; mdx mice, dose of 8 to 40 mg per Kg of body weight per day",successfully suppressed the premature stop codon
